# Values quoted from earlier work in patent US7383946B2 (priority 2004, dated 2008).
compound,measurement,value
"[O][Cl+][O-] [Chlorine dioxide, chlorine dioxide]",concentration at which chlorine dioxide is stable in water and aqueous solutions,approximately 10 g/L
